# Measurements taken from publication PMC7607171, “Optimized low‐dose combinatorial drug treatment boosts selectivity and efficacy of colorectal carcinoma treatment” (Molecular Oncology, 2020).
# Several values for one entry are separate records, joined by “and”; a condition that tells them apart may be missing. Identical values can stand only once. Like-named read-outs stand apart in the source and are kept apart here.
# Legend:
# [1] = Pharmacokinetics, dried blood spot LC-MS/MS, mice with DLD1 tumors; assay type: in vivo; conditions: for Tmax / AUC(0-t) / Cmax: Swiss Nu/nu, mouse, whole blood (dried blood spot), po, regorafenib 15, erlotinib 12.5, selumetinib 5, vemurafenib 75 mg/kg; for AUC(0-t) / Cmax: whole blood, mean ± SD; for AUC(0-t): oral, read-out: AUC0-24h
# Experimental: The pharmacokinetic (PK) study was performed using the dried blood spot method. Mice were treated with CTRL, ODCs, and corresponding monotherapies as described above. To determine the disposition in blood in the first 24h, blood samples (5 µL/mouse) were collected from the tail vein (n = 4 mice) at 2h, 4h, 8h, and 24h time points and transferred onto paper (a filter paper 903 protein saver card from Whatman (MA, USA)). A disk with the entire spot was punched from the paper card and transferred to the HPLC vial tube. Hundred µL of MeOH containing a mix of internal standards was added, and the tube was vortex‐mixed for about 1 min before injecting 10 µL into the LC‐MS/MS system. The LC‐MS/MS system consisted of an API 4,000 triple quadrupole mass spectrometer (AB sciex, Concord, ON, Canada) controlled by analyst 1.6.1 software. The mass spectrometer was operated in the multiple reaction monitoring (MRM) mode with positive electrospray ionization. The instrument was coupled with an Agilent series 1100 (Waldbronn, Germany) LC system. Chromatography was performed on a Phenomenex Kinetex C18 analytical column (50 mm x 2.1 mm, 2.6 um; Torrance, CA, USA). The flow rate was 0.5 mL/min using gradient elution conditions. The method was fully validated before application to this pharmacokinetic study.
# [2] = Clinical plasma pharmacokinetics in patients, plasma concentration limit calculation; assay type: in vivo; conditions: average plasma concentration calculated from AUC0-24h in patients
# Experimental: To select for clinically relevant doses, the clinically attainable drug concentration measured in the blood plasma of patients after treatment is used to calculate the concentration limit for in vitro experiments. […] The average drug concentration is calculated from the AUC0–24h and is implemented as the plasma concentration limit (PCL) which drug dose selection must remain below for in vitro experiments. If a drug is FDA approved, the AUC0–24h selected is the one corresponding to the recommended dose in clinical practice. If a drug is in clinical trials, the AUC0–24h selected is the one corresponding to the maximum tolerated dose in early stage clinical trials. Note, experiments were conducted with the most current PCL calculated from the AUC0–24h information available at the start of experiments (December 2017), see Table S4.
# [3] = tested on: DLD1 tumors; experiment: Subcutaneous xenograft tumor growth; assay type: in vivo, Swiss nu/nu mice
# Experimental: All procedures including animal use were performed in accordance with the Institutional Ethical Committee of Animal Care in Geneva and the Swiss Cantonal Veterinary Office (Authorization number GE‐136‐19). Briefly, female and male Swiss nu/nu mice aged 6–8 weeks were obtained from Charles River (Écully, France). For subcutaneous xenografts mice were inoculated in the left flank with 5x10^6 DLD1 or SW620 cells suspended in 100 µL of cell culture medium, supplemented with 1% FBS.
# Drugs were administered through oral gavage based on average body weight of the males (100 µL/mouse) and females (80 µL/mouse) at various concentrations, see Tables S10 and S11.
# Solution A: step (1) 30% PEG 400 + 5% propylene glycol + 0.5% Tween 80 and (2) 64.5% sterile H2O. Solution B: step (1) 10% DMSO, (2) 30% PEG 300 + 5% Tween 80 and (3) 55% sterile H2O. […] FOLFOX was administered as 6 mg/kg oxaliplatin two hours before administration of 90 mg/kg leucovorin and 50 mg/kg (DLD1) or 25 mg/kg (SW620) 5‐fluorouracil at day 1 and a repeat of 5‐fluorouracil dosing on day 2.
# The Bliss independence model can be used to evaluate the drug interaction potential of a drug mixture. […] The model is based on the probability theory and requires the drug activity of each drug at the selected dose to predict the inhibition rate (IR) at additive doses.
# [4] = Serum and intratumor drug concentration at experimental endpoint, DLD1 model; assay type: in vivo, mice; conditions: for concentration at 1 h / Kp at 1 h: Swiss Nu/nu, mouse, oral; for concentration at 1 h: 1h post-treatment at endpoint (day 15); for Kp at 1 h: tumor vs serum, read-out: ratio tumor vs serum; for Kp at 1 h / ratio ODC vs single drug: DLD1 model
# Experimental: At the experimental endpoint, plasma and tumors were collected 1h post‐treatment and part of the tumor tissue was used to determine the intratumor drug concentrations. Plasma and tumor samples were analyzed using the same LC‐MS/MS method used for drug determination in DBS. Before analysis, tumor tissues were homogenized in a 1 mL mixture of water/acetonitrile (30/70). Hundred uL of homogenates were transferred into new tubes and 50 µL of acetonitrile, as well as 50 µL of a mix of internal standards in MeOH were added. Tubes were vortexed and centrifuged for 10 min at 9,000 rpm. The supernatant (100 µL) was evaporated under nitrogen and reconstituted in 100 µL of acetonitrile with 0.1% formic acid/water with 0.1% formic acid (30/70). 10 µL was then injected into the LC‐MS/MS system. Plasma samples were spotted onto the same paper used for whole blood analysis and were extracted and analyzed using the same methods as used for DBS.
# [5] = 0-24h; ref EPAR WC00033991; cited from earlier work
# [6] = given as part of DLD1-specific ODC
# [7] = erlotinib 5 mg/kg, Exp 1, Day 11
# [8] = erlotinib 12.5 mg/kg, Exp 1, Day 11
# [9] = erlotinib 12.5 mg/kg, Exp 5, Day 16
# [10] = erlotinib 12.5 mg/kg, Exp 7, Day 15
smiles,measurement,setting,value
C#Cc1cccc(Nc2ncnc3cc(OCCOC)c(OCCOC)cc23)c1 [erlotinib],Tmax,[1]; [6],2 h
same,AUC(0-t),[1]; [6],22300 ± 5140 ng·h/mL
same,Cmax,[1]; [6],3370 ± 2160 ng/mL
same,Tmax,[1]; mono,2 h
same,AUC(0-t),[1]; mono,19600 ± 7660 ng·h/mL
same,Cmax,[1]; mono,2610 ± 860 ng/mL
same,increase of AUC as part of the ODC vs single-drug treatment,"[1]; mice with DLD1 tumors, AUC0-24h",1.14 x
same,PCL (plasma concentration limit),[2],1.61 µM and 1.6 µM
same,% CTRL (tumor volume),[3]; [7],104 72 27 % CTRL
same,Volume,[3]; [7],482 336 127 mm^3
same,% CTRL (tumor volume),[3]; [8],87 35 13 % CTRL
same,Volume,[3]; [8],405 161 61 mm^3
same,% CTRL (tumor volume),[3]; [9],66 28 12 % CTRL
same,Volume,[3]; [9],420 178 80 mm^3
same,% CTRL (tumor volume),[3]; [10],98 44 22 % CTRL
same,Volume,[3]; [10],420 211 86 mm^3
same,concentration at 1 h,"[4]; serum, as part of ODC, regorafenib 15, erlotinib 12.5, selumetinib 5, vemurafenib 75 mg/kg, read-out: concentration serum",3040 ± 910 ng/mL
same,concentration at 1 h,"[4]; serum, single drug, regorafenib 15, erlotinib 12.5, selumetinib 5, vemurafenib 75 mg/kg, read-out: concentration serum",2330 ± 180 ng/mL
same,concentration at 1 h,"[4]; tumor (DLD1), as part of ODC, DLD1 tumor, doses as E156, read-out: concentration tumor",7600 ± 3200 ng/g
same,concentration at 1 h,"[4]; tumor (DLD1), single drug, DLD1 tumor, doses as E156, read-out: concentration tumor",3620 ± 140 ng/g
same,Kp at 1 h,[4]; as part of ODC,2.5
same,Kp at 1 h,[4]; single drug,1.55
same,ratio ODC vs single drug,[4]; serum,1.31
same,ratio ODC vs single drug,[4]; tumor,2.10
same,AUC,[5],15.2 mg*h/L EPAR WC00033991
